Assay results from patent US11337420B2, “Cryopreservation of juvenile stages of barnacles” (Planktonic AS, priority 2016, dated 2022).
Like-named read-outs stand apart in the source and are kept apart here.

Legend:
[1] = test system: Barnacle nauplii stage I and II of Semibalanus balanoides
Description: Samples were taken out after 0, 1, 2, 4, 8, 12, and 24 hours and the cryoprotectant was washed out to check viability of the nauplii. Levels of viability were identified as 0, 1, 2, 3, 4 and 5. “0” represents no activity (dead nauplii), 1-3 are twitching of appendages less than pre-cryopreserved nauplii, but 3 are close to natural swimming. 4 are swimming as pre-cryopreserved nauplii, and 5 are over-stimulated nauplii.

[2] = test system: Barnacle nauplii stage I and II from Semibalanus balanoides; experiment: Cryopreservation, thawing and revitalization of nauplii, viability check (different cryoprotectants, volume ratios, equilibrium periods); assay type: in vivo
Description: (§1) Barnacle nauplii (Semibalanus balanoides or Balanus crenatus) were drained and concentrated (10% dry weight) and mixed 1:1 with a cryoprotectant (on ice). The mixture was filled, sealed and equilibrated in a pouch (600 gram consisting of 300 ml cryoprotectant and 300 ml barnacles) for 30 minutes at 5 ° C. before transferring to a controlled freezer. The pouch was put in an aluminum rack, and temperature loggers were put inside the pouch and in the freezer to measure air temperature. Alternatively smaller amount of about 60 g or vials were used in the tests.
(§2) After freezing from 5 to −42 ° C., with a duration of >12 hours using the disclosed method, the pouches were soaked in liquid nitrogen until −196 ° C. were homogenously achieved inside the pouches. The pouches were transferred to cryocontainers (with liquid nitrogen) of 175 liters, and stored for more than 48 hours. To check viability, the pouches were removed from the cryocontainer, crushed to get out the content and thawed in cold seawater (less than 5 ° C.). After 15 minutes, the thawed nauplii were washed on a 100 μm filter to remove the cryoprotectant. Revitalization was performed for >8 hours in an aerated tank with 30 PSU seawater (start temperature 2.5 ° C.).
Barnacle nauplii stage I and II from Semibalanus balanoides were treated with a 6 molar solution of dimethyl sulfoxide (DMSO) as cryoprotectant and 1:1 mixing between cryoprotectant and organisms. Equilibrium was performed for 30 minutes at 3 to 5° C.
Samples of these organisms were cryopreserved in a volume ratio of A) 30% cryoprotectant to 70% organisms (volume/volume) and B) 40% cryoprotectant to 60% organisms (volume/volume). The control was C) 50% cryoprotectant to 50% organisms (volume/volume). All tests were carried out in triplicate.
(1:1 volume ratio with organisms). Thereafter the organisms were cryopreserved by the disclosed method, stored in liquid nitrogen for 48 hours, thawed and revitalized. The barnacle nauplii were analyzed for their vitality using a binocular microscope.

[3] = for content of ethylene glycol in drained barnacle nauplii: revitalization in 30 liters of seawater
Source text: Immediately after thawing, the nauplii was drained for water and frozen again.
A small piece of frozen material was taken on a filter, and rinsed until it was thawed, and thereafter frozen and analyzed. […] When revitalized, the barnacle nauplii were drained again for seawater, and added 30 liters of seawater.

[4] = test system: Barnacle nauplii stage I and II from Semibalanus balanoides or Balanus crenatus; conditions: 7.2 molar solution, 1:1 mixing between cryoprotectant and organisms
Description: as §1, §2

[5] = test system: nauplii of Balanus amphitrite; conditions: 3 to 4 M, equilibration time up to 2 h; cited from earlier work
aquatic organisms = aquatic organisms in general; cited from earlier work
nauplii = conditions: salt in the cryoprotectant solution compared to no salt addition
Source text: The final salt concentration of NaCl is thereby preferably between 2.0 to 4.5%, more preferably between 3.0 to 3.8%, most preferred between 3.2 and 3.8%.

[6] = 600 gram sample in 15 liter seawater, after 15 minutes

SMILES: OCCO [ethylene glycol]
- individuals showing relatively good swimming behavior ([1]; 7.2 molar ethylene glycol stock solution, on ice, even after 24 hour of exposure): 80-90%
- level of viability of recovered nauplii ([1]; 7.2 molar ethylene glycol stock solution, on ice, even after 24 hour of exposure, cryoprotectant washed out): 2-3
- harm to nauplii in toxicity test ([1]; equilibrium period of 24 hours with 7.2 M (stock solution) ice cold): does not considerably harm barnacle nauplii
- viability, difference between volume ratios ([2]; 30%, 40% or 50% cryoprotectant to 70%, 60% or 50% organisms (volume/volume), triplicate): no significant between the treatments in terms of viability
- vitality, difference between equilibrium periods ([2]; incubated 0, 15, 30, 60 minutes in 7.2 M at 5 ° C., 1:1 volume ratio): No significant differences in vitality
- vitality after equilibrium period ([2]; incubated 90 minutes in 7.2 M at 5 ° C., 1:1 volume ratio): less vital organisms than the other treatments
- equilibration of cryoprotectant with the organisms ([3]; 7.2 molar solution added to drained material): < 15%
- content as share of the added ethylene glycol [3, 6]: < 2%
- ethylene glycol concentration in nauplii [3, 6]: about 0.1 M
- content of ethylene glycol in drained barnacle nauplii ([3]; after one hour): < 25 ppm
- content of ethylene glycol in drained barnacle nauplii ([3]; after two hours, detection level): < 10 ppm
- ethylene glycol concentration inside the organisms ([3]; second step: drained, 15 liter of seawater added for washing): < 300 ppm
- ethylene glycol content in nauplii ([3]; time zero sample, rinsed until thawed, 7.2 M, volume ratio 1:1): 7400-11000 ppm
- nauplii with natural swimming activity (level 4) after thawing [4]: > 50%
- swimming activity level of the remaining nauplii after thawing [4]: 1-3
- damage to nauplii [5]: did not cause damage
- level regarded as non-toxic (aquatic organisms): ≤ 100 ppm

SMILES: CC(O)CO (centres unmarked) [propylene glycol]
- percentage of viable nauplii after thawing ([2]; 40% by volume mixed with 60% by volume seawater, volume ratio 1:1): minimal compared to ethylene glycol

SMILES: C[S+](C)[O-] [DMSO, dimethyl sulfoxide]
- viability after thawing ([2]; 6 molar solution, 1:1 mixing, equilibrium 30 minutes at 3 to 5° C.): comparable to barnacle nauplii exposed to ethylene glycol

SMILES: [Cl-].[Na+] [NaCl]
- revitalization of nauplii (nauplii): improve the revitalization of nauplii compared to no salt addition
